{
  "source": "paper PMC8476002",
  "about": "“Bergamottin a CYP3A inhibitor found in grapefruit juice inhibits prostate cancer cell growth by downregulating androgen receptor signaling and promoting G0/G1 cell cycle block and apoptosis” (PLoS ONE, 2021)",
  "key": {"[1]": {"test_system": "MDAPCa2b cells", "experiment": "MTT growth assay, MDAPCa2b", "format": "cell-based", "conditions": "Homo sapiens, MDA-PCa-2b", "description": "Growth of the cells was measured using a MTT assay. Cells were plated (2000 cells/ 96 well or 13,000 cells/ 24 well) for 48 hours then treated with bergamottin for 4 days (96 hours) and then incubated with MTT (3-(4,5-Dimethylthiazol- 2-yl)-2,5-Diphenyltetrazolium bromide) (4 mg/ml) for 2 h. at 37°C. DMSO (vehicle control for bergamottin) levels were compensated in each bergamottin treatment group. Cells were centrifuged at 2000 g for 10 min and the supernatant was discarded. The cell pellet was dissolved in 100/500 μl of DMSO depending on the well size. A plate reader was used to read the absorption at 540 nm. Experiments were performed in octuplet/quadruplet and repeated at least three times."}, "[2]": {"test_system": "AR nuclear localization in MDAPCa2b cells", "experiment": "Confocal microscopy of AR nuclear localization, MDAPCa2b", "format": "cell-based, human", "conditions": "bergamottin 10μM, versus DMSO", "description": "Cells were seeded into 35 mm Glass bottom dish (Cellvis catalog# D35C4-20-1.5-N) in complete media; media was changed to CSSM prior to DHT treatment. The cells were fixed in 4% paraformaldehyde for 20 minutes and permeabilized using permeabilizing buffer (0.2% Tween 20 in PBS) for 5 minutes. Cells were blocked using 10% goat serum diluted in permeabilizing buffer with 1% BSA for 15 minutes. Primary antibodies were diluted at 1:100 in staining buffer (1% BSA in PBS) and incubated for 2 hours at room temperature. Cells were washed three times (5 minutes each) in PBS. Secondary antibodies, TRITC-conjugated Donkey Anti-rabbit (711-025-152) was from Jackson immuno research, West Grove, PA was diluted at 1:100 in staining buffer and incubated for 60 minutes at room temperature. Cells were washed three times (5 minutes) in PBS and stained with 1 μg/mL DAPI (4’, 6-diamidino-2-phenylindole) in PBS for 5 minutes at room temperature. The cells were stored in PBS at 4°C until imaging was completed.\nCells were imaged using confocal laser scanning microscopy on a Nikon A1R using a galvano scanner and a 60× Apo-TIRF oil immersion objective. NIS Elements software form Nikon was used for recording the data."}, "[3]": {"test_system": "PSA in LNCaP cells", "experiment": "Western blotting of PSA, LNCaP", "format": "cell-based, human", "conditions": "10μM, 96 hours", "description": "Cells were plated at 25–30% confluence when maintained in complete media. When the cells required DHT tretment and media replacement to charcoal stripped serum media (CSSM) they were plated at 35–40% confluence. Bergamottin is dissolved in DMSO (vehicle control) and the amount of DMSO at each treatment group was kept constant. After the completion of the treatment cells were washed in phosphate buffer (PBS) containing 2mMEDTA and 2mM EGTA and lysed in RIPA buffer (50 mM TRIS, 150 mM NaCl, 1% NP40, 0.5% sodium deoxycholate, 0.1% SDS, 2mM EDTA, 2mM EGTA) supplemented with protease and phosphatase inhibitors for total protein isolation. Protein estimation was performed using micro BCA assay and equal protein amponts were loaded on SDS-PAGE gels for western analysis. GAPDH was used as an internal control for total protein. Infrared fluorescent-labeled secondary antibodies were used for detection using Odyssey CLx. The bands were quantified using Odyssey software, which calculates pixel density and automatically takes an area adjacent to each band for background corrections."}, "[4]": {"test_system": "LNCaP cells", "experiment": "Cell cycle analysis (propidium iodide, flow cytometry), LNCaP", "format": "cell-based, human", "description": "Cell cycle analysis was performed after staining the cells with propidium iodide (PI). For long term bergamottin treatment (96 hrs.) cells were plated at 25–30% confluence and for short term bergamottin treatment (48 hrs.) they were plated at 30–35% confluence. After completion of specified treatment the cells were trypsinized washed with PBS and fixed in 70% ethanol and then stained with PI in nicoletti buffer (propidium iodide 50 μg/ml, 0.1% sodium citrate, 0.1% triton X-100, RNase 1 mg/ml, in DPBS). Cells were analyzed using C6 Accuri flow cytometer (Becton Dickinson, Mountainview, CA). FlowJo software was used to gate and remove the debris (gate on SSC and FSC) and aggregates (FL2 A and FL2H) from the analysis. Watson pragmatic and Dean-Jett -Fox methods was used to assign percentage frequencies to cells present in the different cell cycle stages."}},
  "data": [
    {"compound": "CC(C)=CCC/C(C)=C/COc1c2ccoc2cc2oc(=O)ccc12", "note": "[bergamottin]", "values": [
      {"measurement": "inhibition at 10 µM", "setting": "[1]; 10μM", "value": 60, "unit": "%"},
      {"measurement": "IC50", "setting": "[1]; treatment 96 hours (methods) / 120 hours (Fig 1 legend), read-out: bergamottin concentration giving 50% growth reduction", "value": 4, "unit": "µM"},
      {"measurement": "active AR migration to the nucleus with DHT induction (confocal)", "setting": "[2]", "value": "significantly reduced"},
      {"measurement": "PSA levels", "setting": "[3]", "value": "significantly reduced PSA levels"},
      {"measurement": "G1 frequency, Dean-Jett-Fox", "setting": "[4]; Berg 5μM, 96 hrs.", "value": "90.81 ±1.7", "unit": "%"},
      {"measurement": "G2 frequency, Dean-Jett-Fox", "setting": "[4]; Berg 5μM, 96 hrs.", "value": "10.53 ±1.0", "unit": "%"},
      {"measurement": "G2 frequency, Watson Pragmatic", "setting": "[4]; Berg 5μM, 96 hrs.", "value": "8.59 ±3.0", "unit": "%"},
      {"measurement": "S frequency, Dean-Jett-Fox", "setting": "[4]; Berg 5μM, 96 hrs.", "value": "-0.3 ±2.3", "unit": "%"},
      {"measurement": "S frequency, Watson Pragmatic", "setting": "[4]; Berg 5μM, 96 hrs.", "value": "0.32±4.3", "unit": "%"},
      {"measurement": "G1 frequency, Dean-Jett-Fox", "setting": "[4]; Berg 10μM, 96 hrs.", "value": "95.1 ±3.4", "unit": "%"},
      {"measurement": "G2 frequency, Dean-Jett-Fox", "setting": "[4]; Berg 10μM, 96 hrs.", "value": "0.22 ±0.4", "unit": "%"},
      {"measurement": "G2 frequency, Watson Pragmatic", "setting": "[4]; Berg 10μM, 96 hrs.", "value": "10.07 ±0.9", "unit": "%"},
      {"measurement": "S frequency, Dean-Jett-Fox", "setting": "[4]; Berg 10μM, 96 hrs.", "value": "-0.03 ±1.1", "unit": "%"},
      {"measurement": "S frequency, Watson Pragmatic", "setting": "[4]; Berg 10μM, 96 hrs.", "value": "-1.17 ±4.5", "unit": "%"},
      {"measurement": "G1 frequency, Dean-Jett-Fox", "setting": "[4]; Berg 20μM, 48 hrs.", "value": "86.7 ±2.3", "unit": "%"},
      {"measurement": "G2 frequency, Dean-Jett-Fox", "setting": "[4]; Berg 20μM, 48 hrs.", "value": "15.3 ±1.0", "unit": "%"},
      {"measurement": "G2 frequency, Watson Pragmatic", "setting": "[4]; Berg 20μM, 48 hrs.", "value": "13.4 ±4.3", "unit": "%"},
      {"measurement": "S frequency, Dean-Jett-Fox", "setting": "[4]; Berg 20μM, 48 hrs.", "value": "-9.8 ±3.0", "unit": "%"},
      {"measurement": "S frequency, Watson Pragmatic", "setting": "[4]; Berg 20μM, 48 hrs.", "value": "4.8 ±3.5", "unit": "%"},
      {"measurement": "G1 frequency, Dean-Jett-Fox", "setting": "[4]; Berg 30μM, 48 hrs.", "value": "96.2 ±3.6", "unit": "%"},
      {"measurement": "G2 frequency, Dean-Jett-Fox", "setting": "[4]; Berg 30μM, 48 hrs.", "value": "7.7 ±0.9", "unit": "%"},
      {"measurement": "G2 frequency, Watson Pragmatic", "setting": "[4]; Berg 30μM, 48 hrs.", "value": "6.3 ±2.3", "unit": "%"},
      {"measurement": "S frequency, Dean-Jett-Fox", "setting": "[4]; Berg 30μM, 48 hrs.", "value": "-8.4 ±4.5", "unit": "%"},
      {"measurement": "S frequency, Watson Pragmatic", "setting": "[4]; Berg 30μM, 48 hrs.", "value": "3.7 ±2.6", "unit": "%"}
    ]}
  ]
}
